ChEMBL document CHEMBL3425471, “Design, synthesis and biological evaluation of novel pyrazoline-containing derivatives as potential tubulin assembling inhibitors” (Eur J Med Chem, 2015)
One block for each compound: values may come before it.

Legend:
HepG2 = assay: cells; details: Homo sapiens, HepG2, 24 h
Description: Antiproliferative activity against human HepG2 cells assessed as reduction in cell viability after 24 hrs by MTT assay

Tubulin = Tubulin (Bos taurus, UniProt Q6B856+Q862L2+Q862F3); assay: Inhibition of bovine brain tubulin polymerization after 20 mins by turbidimetric analysis
A549 = assay: cells; details: Homo sapiens, A549, 24 h
Description: Antiproliferative activity against human A549 cells assessed as reduction in cell viability after 24 hrs by MTT assay

MCF7 = assay: cells; details: Homo sapiens, MCF7, 24 h
Description: Antiproliferative activity against human MCF7 cells assessed as reduction in cell viability after 24 hrs by MTT assay

SMILES: COc1ccc(C2=NN(C(=O)c3cccc(OC)c3)C(c3ccc4c(c3)OCO4)C2)cc1 (stereo unspecified)
IC50 (HepG2): 6.25 µM | IC50 (Tubulin): 34.77 µM | IC50 (A549): 6.17 µM | IC50 (MCF7): 8.22 µM

SMILES: O=C(c1ccc(Br)cc1)N1N=C(c2ccccc2)CC1c1ccc2c(c1)OCO2 (stereo unspecified)
IC50 (HepG2): > 10 µM | IC50 (Tubulin): > 40 µM | IC50 (A549): > 10 µM | IC50 (MCF7): > 10 µM

SMILES: COc1ccc(C2=NN(C(=O)c3ccccc3)C(c3ccc4c(c3)OCO4)C2)cc1 (stereo unspecified)
IC50 (HepG2): 6.25 µM | IC50 (Tubulin): 35.45 µM | IC50 (A549): 5.21 µM | IC50 (MCF7): 5.37 µM

SMILES: COc1ccc(C2=NN(C(=O)c3ccc(Br)cc3)C(c3ccc4c(c3)OCO4)C2)cc1 (stereo unspecified)
IC50 (HepG2): > 10 µM | IC50 (Tubulin): > 40 µM | IC50 (A549): > 10 µM | IC50 (MCF7): > 10 µM

SMILES: COc1ccc(C2=NN(C(=O)c3cc(OC)c(OC)c(OC)c3)C(c3ccc4c(c3)OCO4)C2)cc1OC (stereo unspecified)
IC50 (HepG2): 0.06 µM | IC50 (Tubulin): 2.13 µM | IC50 (A549): 0.08 µM | IC50 (MCF7): 0.07 µM

SMILES: COc1ccc(C2=NN(C(=O)c3ccc(F)cc3)C(c3ccc4c(c3)OCO4)C2)cc1 (stereo unspecified)
IC50 (HepG2): 1.86 µM | IC50 (Tubulin): 7.69 µM | IC50 (A549): 1.08 µM | IC50 (MCF7): 1.77 µM

SMILES: COc1ccc(C2=NN(C(=O)c3ccc(Br)cc3)C(c3ccc4c(c3)OCO4)C2)cc1OC (stereo unspecified)
IC50 (HepG2): 6.26 µM | IC50 (Tubulin): 22.06 µM | IC50 (A549): 3.19 µM | IC50 (MCF7): 4.46 µM

SMILES: Cc1ccc(C2=NN(C(=O)c3ccc(Br)cc3)C(c3ccc4c(c3)OCO4)C2)cc1 (stereo unspecified)
IC50 (HepG2): > 10 µM | IC50 (Tubulin): > 40 µM | IC50 (A549): > 10 µM | IC50 (MCF7): > 10 µM

SMILES: CCOc1ccc(C2=NN(C(=O)c3ccc(Br)cc3)C(c3ccc4c(c3)OCO4)C2)cc1 (stereo unspecified)
IC50 (HepG2): > 10 µM | IC50 (Tubulin): > 40 µM | IC50 (A549): > 10 µM | IC50 (MCF7): > 10 µM

SMILES: COc1ccc(/C=C\c2cc(OC)c(OC)c(OC)c2)cc1O [COMBRETASTATIN A4]
IC50 (HepG2): 0.17 µM | IC50 (A549): 0.14 µM

Now from value to compound:

IC50 (HepG2): 2.91 µM | IC50 (Tubulin): 10.11 µM | IC50 (A549): 1.14 µM | IC50 (MCF7): 2.35 µM
SMILES: COc1cc(C(=O)N2N=C(c3ccc(C)cc3)CC2c2ccc3c(c2)OCO3)cc(OC)c1OC (stereo unspecified)

IC50 (HepG2): 5.17 µM | IC50 (Tubulin): 7.08 µM | IC50 (A549): 5.08 µM | IC50 (MCF7): 7.34 µM
SMILES: COc1cc(C(=O)N2N=C(c3cccc(C)c3)CC2c2ccc3c(c2)OCO3)cc(OC)c1OC (stereo unspecified)

IC50 (HepG2): 0.25 µM | IC50 (Tubulin): 7.89 µM | IC50 (A549): 0.76 µM | IC50 (MCF7): 0.32 µM
SMILES: COc1cc(C(=O)N2N=C(c3ccc(F)cc3)CC2c2ccc3c(c2)OCO3)cc(OC)c1OC (stereo unspecified)

IC50 (HepG2): 0.12 µM | IC50 (Tubulin): 2.35 µM | IC50 (A549): 0.11 µM | IC50 (MCF7): 0.21 µM
SMILES: COc1ccccc1C1=NN(C(=O)c2cc(OC)c(OC)c(OC)c2)C(c2ccc3c(c2)OCO3)C1 (stereo unspecified)

IC50 (HepG2): 2.14 µM | IC50 (Tubulin): 21.73 µM | IC50 (A549): 4.26 µM | IC50 (MCF7): 4.77 µM
SMILES: COc1cc(C2=NN(C(=O)c3ccc(Cl)cc3)C(c3ccc4c(c3)OCO4)C2)cc(OC)c1OC (stereo unspecified)

IC50 (HepG2): 1.06 µM | IC50 (Tubulin): 2.09 µM | IC50 (A549): 0.78 µM | IC50 (MCF7): 0.22 µM
SMILES: COc1cc(C2=NN(C(=O)c3ccc(F)cc3)C(c3ccc4c(c3)OCO4)C2)cc(OC)c1OC (stereo unspecified)

IC50 (HepG2): 0.07 µM | IC50 (Tubulin): 2.19 µM | IC50 (A549): 0.09 µM | IC50 (MCF7): 0.17 µM
SMILES: CCOc1ccc(C2=NN(C(=O)c3cc(OC)c(OC)c(OC)c3)C(c3ccc4c(c3)OCO4)C2)cc1 (stereo unspecified)
